27 molecules from the NIST ThermoML archive (doi:10.1016/j.jct.2017.07.012) can be followed below.

± gives the expanded uncertainty stated by the source.

A short description of the first data set: activity coefficient (dimensionless); of the first substance listed, at infinite dilution; xn = mol fraction of the nth substance listed. Particulars: 303.15 K; 101.33 kPa; Liquid; Chromatography; x1 = 0.
As to `C1=CCCCC1` [cyclohexene] + CCCCn1cc[n+](C)c1.[O-][Cl+3]([O-])([O-])[O-], the activity coefficient is 15.1 ± 1.6.

Turning to `ClC(Cl)Cl` [trichloromethane] + CCCCn1cc[n+](C)c1.[O-][Cl+3]([O-])([O-])[O-], the activity coefficient turned out to be 0.78 ± 0.08.

Take `CC(C)=O` [acetone] + CCCCn1cc[n+](C)c1.[O-][Cl+3]([O-])([O-])[O-]: the activity coefficient came to 0.84 ± 0.09.

Regarding `CCCCCCCCC` [nonane] + CCCCn1cc[n+](C)c1.[O-][Cl+3]([O-])([O-])[O-], the activity coefficient is 151 ± 16.

Regarding `CCCCCCCCCC` [decane] + CCCCn1cc[n+](C)c1.[O-][Cl+3]([O-])([O-])[O-], the activity coefficient turned out to be 226 ± 24.

In the case of `ClC(Cl)(Cl)Cl` [tetrachloromethane] + CCCCn1cc[n+](C)c1.[O-][Cl+3]([O-])([O-])[O-], the activity coefficient came out at 3.61 ± 0.38.

Consider `CCCCCCCC` [octane] + CCCCn1cc[n+](C)c1.[O-][Cl+3]([O-])([O-])[O-], for which the activity coefficient was 109 ± 12.

With `CCCCCCC` [heptane] + CCCCn1cc[n+](C)c1.[O-][Cl+3]([O-])([O-])[O-], the activity coefficient stood at 85.9 ± 9.1.

As for `C1CCOC1` [tetrahydrofuran] + CCCCn1cc[n+](C)c1.[O-][Cl+3]([O-])([O-])[O-], the activity coefficient is 1.5 ± 0.16.

For the molecule `CC(C)CC(C)(C)C` [2,2,4-trimethylpentane] + CCCCn1cc[n+](C)c1.[O-][Cl+3]([O-])([O-])[O-], the activity coefficient was determined as 100 ± 11.

In the case of `c1ccccc1` [benzene] + CCCCn1cc[n+](C)c1.[O-][Cl+3]([O-])([O-])[O-], the activity coefficient is 1.78 ± 0.19.

As for `CO` [methanol] + CCCCn1cc[n+](C)c1.[O-][Cl+3]([O-])([O-])[O-], the activity coefficient came to 1.07 ± 0.11.

Consider `CCCCCC` [hexane] + CCCCn1cc[n+](C)c1.[O-][Cl+3]([O-])([O-])[O-], for which the activity coefficient is 81.7 ± 8.6.

Turning to `CCOC(C)=O` [ethyl acetate] + CCCCn1cc[n+](C)c1.[O-][Cl+3]([O-])([O-])[O-], the activity coefficient amounted to 2.22 ± 0.23.

As to `CCO` [ethanol] + CCCCn1cc[n+](C)c1.[O-][Cl+3]([O-])([O-])[O-], the activity coefficient was found to be 1.67 ± 0.17.

Consider `CC1CCCCC1` [methylcyclohexane] + CCCCn1cc[n+](C)c1.[O-][Cl+3]([O-])([O-])[O-], for which the activity coefficient came out at 46.5 ± 4.9.

For `CC#N` [acetonitrile] + CCCCn1cc[n+](C)c1.[O-][Cl+3]([O-])([O-])[O-], the activity coefficient turned out to be 0.61 ± 0.07.

Turning to `C1CCCCC1` [cyclohexane] + CCCCn1cc[n+](C)c1.[O-][Cl+3]([O-])([O-])[O-], the activity coefficient turned out to be 34.5 ± 3.6.

Staying with this data set, now noted: 313.15 K; 101.33 kPa; Liquid; Chromatography; x1 = 0.
Turning to `Cc1ccccc1` [toluene] + CCCCn1cc[n+](C)c1.[O-][Cl+3]([O-])([O-])[O-], the activity coefficient worked out at 2.96 ± 0.31.

With `C1=CCCCC1` [cyclohexene] + CCCCn1cc[n+](C)c1.[O-][Cl+3]([O-])([O-])[O-], the activity coefficient stood at 14.8 ± 1.6.

For the molecule `ClC(Cl)Cl` [trichloromethane] + CCCCn1cc[n+](C)c1.[O-][Cl+3]([O-])([O-])[O-], the activity coefficient was 0.87 ± 0.09.

`CC(C)=O` [acetone] + CCCCn1cc[n+](C)c1.[O-][Cl+3]([O-])([O-])[O-]: the activity coefficient was 0.91 ± 0.09.

As to `CCCCCCCCC` [nonane] + CCCCn1cc[n+](C)c1.[O-][Cl+3]([O-])([O-])[O-], the activity coefficient turned out to be 142 ± 15.

In the case of `CCCCCCCCCC` [decane] + CCCCn1cc[n+](C)c1.[O-][Cl+3]([O-])([O-])[O-], the activity coefficient is 219 ± 23.

Take `ClC(Cl)(Cl)Cl` [tetrachloromethane] + CCCCn1cc[n+](C)c1.[O-][Cl+3]([O-])([O-])[O-]: the activity coefficient amounted to 3.93 ± 0.41.

For the molecule `CCCCCCCC` [octane] + CCCCn1cc[n+](C)c1.[O-][Cl+3]([O-])([O-])[O-], the activity coefficient turned out to be 111 ± 12.

`CCCCCCC` [heptane] + CCCCn1cc[n+](C)c1.[O-][Cl+3]([O-])([O-])[O-]: the activity coefficient is 91.6 ± 9.7.

Take `C1CCOC1` [tetrahydrofuran] + CCCCn1cc[n+](C)c1.[O-][Cl+3]([O-])([O-])[O-]: the activity coefficient amounted to 1.57 ± 0.16.

For the molecule `CCC(C)O` (stereo not given) [butan-2-ol] + CCCCn1cc[n+](C)c1.[O-][Cl+3]([O-])([O-])[O-], the activity coefficient turned out to be 2.91 ± 0.31.

In the case of `CC(C)CC(C)(C)C` [2,2,4-trimethylpentane] + CCCCn1cc[n+](C)c1.[O-][Cl+3]([O-])([O-])[O-], the activity coefficient worked out at 102 ± 11.

For the molecule `c1ccccc1` [benzene] + CCCCn1cc[n+](C)c1.[O-][Cl+3]([O-])([O-])[O-], the activity coefficient was determined as 1.82 ± 0.19.

As to `CO` [methanol] + CCCCn1cc[n+](C)c1.[O-][Cl+3]([O-])([O-])[O-], the activity coefficient turned out to be 1.06 ± 0.11.

As for `CCCCCC` [hexane] + CCCCn1cc[n+](C)c1.[O-][Cl+3]([O-])([O-])[O-], the activity coefficient worked out at 89.2 ± 9.4.

`CCOC(C)=O` [ethyl acetate] + CCCCn1cc[n+](C)c1.[O-][Cl+3]([O-])([O-])[O-]: the activity coefficient was determined as 2.31 ± 0.24.

For the molecule `CCO` [ethanol] + CCCCn1cc[n+](C)c1.[O-][Cl+3]([O-])([O-])[O-], the activity coefficient was 1.59 ± 0.17.

Regarding `CC1CCCCC1` [methylcyclohexane] + CCCCn1cc[n+](C)c1.[O-][Cl+3]([O-])([O-])[O-], the activity coefficient was 46.7 ± 4.9.

As to `CC#N` [acetonitrile] + CCCCn1cc[n+](C)c1.[O-][Cl+3]([O-])([O-])[O-], the activity coefficient amounted to 0.62 ± 0.07.

For `C1CCCCC1` [cyclohexane] + CCCCn1cc[n+](C)c1.[O-][Cl+3]([O-])([O-])[O-], the activity coefficient is 34.6 ± 3.6.

The same data set, now with this note: 323.15 K; 101.33 kPa; Liquid; Chromatography; x1 = 0.
On to `CC(C)CO` [2-methyl-1-propanol] + CCCCn1cc[n+](C)c1.[O-][Cl+3]([O-])([O-])[O-], for which the activity coefficient is 2.9 ± 0.3.

As for `Cc1ccccc1` [toluene] + CCCCn1cc[n+](C)c1.[O-][Cl+3]([O-])([O-])[O-], the activity coefficient is 3.1 ± 0.33.

As to `C1=CCCCC1` [cyclohexene] + CCCCn1cc[n+](C)c1.[O-][Cl+3]([O-])([O-])[O-], the activity coefficient is 14.7 ± 1.6.

`CCc1ccccc1` [ethylbenzene] + CCCCn1cc[n+](C)c1.[O-][Cl+3]([O-])([O-])[O-]: the activity coefficient stood at 5.05 ± 0.53.

In the case of `ClC(Cl)Cl` [trichloromethane] + CCCCn1cc[n+](C)c1.[O-][Cl+3]([O-])([O-])[O-], the activity coefficient is 0.93 ± 0.09.

For `CC(C)=O` [acetone] + CCCCn1cc[n+](C)c1.[O-][Cl+3]([O-])([O-])[O-], the activity coefficient came to 0.94 ± 0.1.

In the case of `CCCCCCCCC` [nonane] + CCCCn1cc[n+](C)c1.[O-][Cl+3]([O-])([O-])[O-], the activity coefficient was determined as 142 ± 15.

For `CCCCCCCCCC` [decane] + CCCCn1cc[n+](C)c1.[O-][Cl+3]([O-])([O-])[O-], the activity coefficient is 217 ± 23.

`ClC(Cl)(Cl)Cl` [tetrachloromethane] + CCCCn1cc[n+](C)c1.[O-][Cl+3]([O-])([O-])[O-]: the activity coefficient is 4.1 ± 0.43.

Turning to `Cc1ccc(C)cc1` [1,4-dimethylbenzene] + CCCCn1cc[n+](C)c1.[O-][Cl+3]([O-])([O-])[O-], the activity coefficient came to 4.82 ± 0.51.

With `Cc1cccc(C)c1` [1,3-dimethylbenzene] + CCCCn1cc[n+](C)c1.[O-][Cl+3]([O-])([O-])[O-], the activity coefficient turned out to be 4.99 ± 0.52.

With `CCCCCCCC` [octane] + CCCCn1cc[n+](C)c1.[O-][Cl+3]([O-])([O-])[O-], the activity coefficient worked out at 119 ± 12.

As for `CCCO` [propan-1-ol] + CCCCn1cc[n+](C)c1.[O-][Cl+3]([O-])([O-])[O-], the activity coefficient was 2.05 ± 0.22.

Turning to `CCCCCCC` [heptane] + CCCCn1cc[n+](C)c1.[O-][Cl+3]([O-])([O-])[O-], the activity coefficient amounted to 99.1 ± 10.

Turning to `C1CCOC1` [tetrahydrofuran] + CCCCn1cc[n+](C)c1.[O-][Cl+3]([O-])([O-])[O-], the activity coefficient was found to be 1.67 ± 0.17.

With `CCC(C)O` (stereo not given) [butan-2-ol] + CCCCn1cc[n+](C)c1.[O-][Cl+3]([O-])([O-])[O-], the activity coefficient amounted to 2.66 ± 0.28.

Regarding `CC(C)CC(C)(C)C` [2,2,4-trimethylpentane] + CCCCn1cc[n+](C)c1.[O-][Cl+3]([O-])([O-])[O-], the activity coefficient stood at 107 ± 11.

With `c1ccccc1` [benzene] + CCCCn1cc[n+](C)c1.[O-][Cl+3]([O-])([O-])[O-], the activity coefficient came out at 1.97 ± 0.21.

As to `CO` [methanol] + CCCCn1cc[n+](C)c1.[O-][Cl+3]([O-])([O-])[O-], the activity coefficient was found to be 1.05 ± 0.11.

For the molecule `CCCCCC` [hexane] + CCCCn1cc[n+](C)c1.[O-][Cl+3]([O-])([O-])[O-], the activity coefficient was 98 ± 10.

Turning to `CCOC(C)=O` [ethyl acetate] + CCCCn1cc[n+](C)c1.[O-][Cl+3]([O-])([O-])[O-], the activity coefficient turned out to be 2.46 ± 0.26.

Consider `CCO` [ethanol] + CCCCn1cc[n+](C)c1.[O-][Cl+3]([O-])([O-])[O-], for which the activity coefficient turned out to be 1.59 ± 0.17.

As for `CC1CCCCC1` [methylcyclohexane] + CCCCn1cc[n+](C)c1.[O-][Cl+3]([O-])([O-])[O-], the activity coefficient turned out to be 47 ± 5.

As to `CC#N` [acetonitrile] + CCCCn1cc[n+](C)c1.[O-][Cl+3]([O-])([O-])[O-], the activity coefficient stood at 0.63 ± 0.07.

For the molecule `C1CCCCC1` [cyclohexane] + CCCCn1cc[n+](C)c1.[O-][Cl+3]([O-])([O-])[O-], the activity coefficient was 35.2 ± 3.7.

Staying with this data set, now noted: 333.15 K; 101.33 kPa; Liquid; Chromatography; x1 = 0.
For the molecule `CC(C)CO` [2-methyl-1-propanol] + CCCCn1cc[n+](C)c1.[O-][Cl+3]([O-])([O-])[O-], the activity coefficient was 2.67 ± 0.28.

In the case of `Cc1ccccc1` [toluene] + CCCCn1cc[n+](C)c1.[O-][Cl+3]([O-])([O-])[O-], the activity coefficient was determined as 3.14 ± 0.33.

Turning to `CCCCCO` [pentan-1-ol] + CCCCn1cc[n+](C)c1.[O-][Cl+3]([O-])([O-])[O-], the activity coefficient was determined as 3.88 ± 0.41.

As for `C1=CCCCC1` [cyclohexene] + CCCCn1cc[n+](C)c1.[O-][Cl+3]([O-])([O-])[O-], the activity coefficient worked out at 14.6 ± 1.5.

As for `CCc1ccccc1` [ethylbenzene] + CCCCn1cc[n+](C)c1.[O-][Cl+3]([O-])([O-])[O-], the activity coefficient was found to be 5.11 ± 0.54.

For `ClC(Cl)Cl` [trichloromethane] + CCCCn1cc[n+](C)c1.[O-][Cl+3]([O-])([O-])[O-], the activity coefficient came out at 0.98 ± 0.1.

On to `CC(C)=O` [acetone] + CCCCn1cc[n+](C)c1.[O-][Cl+3]([O-])([O-])[O-], for which the activity coefficient worked out at 0.98 ± 0.1.

Turning to `CCCCCCCCC` [nonane] + CCCCn1cc[n+](C)c1.[O-][Cl+3]([O-])([O-])[O-], the activity coefficient was found to be 137 ± 14.

As to `CCCCCCCCCC` [decane] + CCCCn1cc[n+](C)c1.[O-][Cl+3]([O-])([O-])[O-], the activity coefficient stood at 204 ± 22.

Take `O` [water] + CCCCn1cc[n+](C)c1.[O-][Cl+3]([O-])([O-])[O-]: the activity coefficient turned out to be 1.02 ± 0.1.

On to `ClC(Cl)(Cl)Cl` [tetrachloromethane] + CCCCn1cc[n+](C)c1.[O-][Cl+3]([O-])([O-])[O-], for which the activity coefficient turned out to be 4.22 ± 0.44.

On to `Cc1ccc(C)cc1` [1,4-dimethylbenzene] + CCCCn1cc[n+](C)c1.[O-][Cl+3]([O-])([O-])[O-], for which the activity coefficient worked out at 4.91 ± 0.52.
